Molecular target: T1, human folate receptor (Homo sapiens, UniProt P15328)
T1 construct: KB cells, which express high levels of the human folate receptor; endogenous in cells; host or cells: KB cells
Test: screening of the 36-member folate analog library on T7 phage for uptake into KB cells
Format: cell-based
Settings: compound displayed on T7 phage
Experimental: KB cells were grown adherently in folate-free RPMI with 5% fetal bovine serum in a T75 flask. Prior to screening the compound library the media was removed and replaced with folate-free RPMI containing 0.1% BSA. An aliquot of the folate-analog phage library (˜10^9 pfu) was added to the flask containing 10^7 KB cells and incubated for 2 h at 37° C. Following the incubation period, the cells were detached from the flask by adding PBS containing 5 mM EDTA and incubating for 5 minutes at 37° C. The cell suspension was transferred to a tube and cells were pelleted by centrifugation. The cells were washed 3× with PBS followed by a single wash with “stripping” buffer (50 mM glycine, pH 2.8, 500 mM NaCl, 2M urea, 2% polyvinylpyrolidone) to remove phage particles that were both specifically and non-specifically bound to the surface of the cells. The cell suspension was neutralized by the addition of one half volume of 1 M Tris and centrifuged to pellet the cells. Cells were then lysed with PBS containing 1% SDS to recover phage that were endocytosed. To determine the number of recovered phage particles the lysate was titered by preparing a series of dilutions, infecting BL21 cells and plating on LB agar plates. The plates were incubated for 2-3 h at 37° C. until plaques were clearly visible. […]

T1 sequence (P15328 25-234): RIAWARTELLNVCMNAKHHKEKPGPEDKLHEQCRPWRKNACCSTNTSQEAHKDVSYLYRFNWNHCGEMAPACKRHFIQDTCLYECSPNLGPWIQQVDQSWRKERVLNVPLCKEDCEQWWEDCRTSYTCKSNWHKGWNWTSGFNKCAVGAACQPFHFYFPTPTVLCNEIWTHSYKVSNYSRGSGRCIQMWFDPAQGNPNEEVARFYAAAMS

share of sequenced random clones from the lysate carrying the clone's DNA tag (21 sequences): 38%
enrichment of phage clone in the population recovered from the cell lysate (hybridization to library archive array) (2 h at 37° C.): the only one enriched
Compound: NNC(=O)COCCOCCNC(=O)CCC(NC(=O)c1ccc(NCc2cnc3nc(N)nc(O)c3n2)cc1)C(=O)O (centres unmarked) [folate-hydrazide, Folate-hydrazide]

Source: patent publication US7229757B2, “Compounds displayed on icosahedral phage and methods of using same” (Xenoport, Inc., priority 2001, dated 2007)
